# Data taken from patent publication US5912258A, “Thiadiazoleamide derivative and anti-ulcer drug” (Shiseido Co., Ltd., priority 1998, dated 1999).
# Assays:
# [1] = tested on: stress ulcer formation; experiment: WIS: Restraint and Water Immersion Stress-Induced Ulcer Inhibition Test; format: in vivo, Male Crj:SD or Slc:SD rats; details: for WIS: ulcer formation inhibitory rate: rat, 100 mg/kg orally, 7 hours water immersion stress
# Protocol: WIS: Restraint and Water Immersion Stress-Induced Ulcer Inhibition Test (i) Meaning The degree of inhibition of the stress ulcer formation is tested. (ii) Method Male Crj:SD or Slc:SD rats (6 to 7-weeek-old) were fasted overnight, but allowed free access to water. Each group has 5 to 8 of these rats. The sample compound was dissolved or suspended in an aqueous solution of 0.3% sodium carboxymethylcellulose or 0.05% Tween 80 and then was orally administered (100 mg/10 ml/kg). To a control group, the vehicle was administered. 10 minutes later, the rats were placed in a stress cage and immersed to the level of xiphoid process in a water bath (21° C.) for 7 hours. At the end of the stress, the rats were sacrificed by inhalation of ether or carbon dioxide. Then, the stomach of each was removed, inflated by injecting 10 ml of 5% formalin neutral buffer solution, and immersed in 1% formalin neutral buffer solution for 30 minutes or more to be fixed. The stomach was incised along the greater curvature and then the length of each erosion in the glandular portion was determined under dissecting microscope. The sum of the length of erosions per stomach was defined as ulcer index (UI). (iii) Judgment Standard […]
# [2] = tested on: isolated gastric fundic gland; experiment: CAP: Acid Secretion Inhibition Test in vitro ([^14 C]-aminopyrine uptake); format: cell-based, male Japanese White rabbit; details: rabbit isolated gastric fundic gland, 10^-5 M, histamine 10^-5 M; for inhibition at 10 µM: Oryctolagus cuniculus, read-out: CAP: Acid secretion inhibitory rate
# Protocol: CAP: Acid Secretion Inhibition Test in vitro (i) Meaning The acid secretion inhibitory activity in a cell level is studied. It can also be used for studying the mechanism of the effect. (ii) Method (ii)-(a) Preparation of isolated gastric gland suspension First, an isolated gastric fundic gland sample was prepared. Namely, a male Japanese White rabbit (2.5 to 3 kg) was anesthetized to death with Nembutal™ and then the abdomen was incised. Immediately thereafter, the stomach was removed and, after its pyloric and cardiac antrum were severed, incised along its greater curvature into two sheets. The gastric contents adhering to the mucosal surface was washed out with ice-cooled PBS (-) and then carefully washed therein. The gastric wall was spread on a cork board with its mucosal surface facing up and the feed and mucus thereon were completely removed with sterile gauze. The mucosa was separated therefrom by a spatula and then collected in ice-cooled PBS (-). After being washed twice with PBS (-), the mucosa was minced into 2-3 mm^3 pieces by scissors. These pieces were further washed twice with a nutrient solution. The nutrient solution comprises 132.4 mM of NaCl, 5.4 mM of KCl, 5 mM of Na2 HPO4 ·12H2 O, 1 mM of NaH2 PO4 ·2H2 O, 1.2 mM of MgSO4, 1 mM of CaCl2, 25 mM of HEPES, 2 mg/ml of glucose, and 1 mg/ml of BSA. Into 70 ml of the nutrient solution containing 1 mg/ml of collagenase, minced mucosal pieces were dispersed and intensely stirred in a conical flask with a stirrer at 37° C. for 40 to 60 minutes. […] The nutrient solution was added to the reaction solution so as to attain the total amount of about 200 ml. After being filtered through a mesh, the suspension was divisionally introduced into 50 ml centrifuge tubes and left for 15 minutes such that gastric fundic gland was deposited. The supernatant was repeatedly removed by an aspirator, dispersed in the nutrient solution, and then left such that the gastric fundic gland was washed three times. At this time, without using a pipette, the suspension was alternately introduced into two centrifuge tubes so as to effect dispersion. The number of cells was counted under microscope and adjusted to 1.6×10^6 cells/ml. (ii)-(b) [^14 C]-aminopyrine uptake test Then [^14 C]-aminopyrine uptake test was performed. After an Eppendorf tube was weighed, 10 μl (final concentration: 10^-5 M) of histamine dissolved in the above-mentioned nutrient solution, 10 μl (final concentration: 10 ^-5 M) of the test compound dissolved in DMSO, and 10 μl (final concentration: 0.05 μCi/ml) of [^14 C]-aminopyrine diluted with the nutrient solution were introduced therein and then 970 μl of the isolated gastric fundic gland suspension prepared above were added thereto. Subsequently, this mixture was shaken at 37° C. for 40 minutes at 125 cycles/minute. After being centrifuged for 30 minutes 200 μl of its supernatant was collected into a mini-vial, while the rest was removed by an aspirator. The gland pellet was completely dried as the tube with its lid being opened was kept for one night in a drying oven at 80° C. and then the weight was determined at room temperature. Then 100 μl of 1N KOH was added thereto an the tube with its lid being closed was treated at 60° C. for 1 to 2 hours so as to dissolve the pellet. Then, the contents thereof were transferred to a mini-vial. Into the mini-vial containing the supernatant or gland pellet, 4 ml of Atomlite™ was added and then the radioactivity was measured by a liquid scintillation counter. Here, after the radioactivity of the gland pellet was corrected by using a sample in which 20 mM of NaSCN was added so as to cancel the hydrogen ion concentration gradient, the integration ratio of aminopyrine specifically trapped by the gland pellet was calculated. This experiment was performed in duplicate. (ii)-(c) Calculation of the accumulation rate of aminopyrine Here, its principle will be briefly explained. […]
# [3] = tested on: gastric corpus mucosa cells; experiment: MTT: Cell Damaging and Protecting Effect Test; format: cell-based, male Japanese White rabbit; details: rabbit gastric mucosa cells, 10^-4 M, 4 hours; smaller value is better; 100 µM
# From the text: (§1) MTT: Cell Damaging and Protecting Effect Test
# (§2) It is confirmed that there is no toxicity in cell level. Those having toxicity in cell level are inappropriate as an anti-ulcer drug.
# (§3) A male Japanese White rabbit (2.5 to 3 kg) was anesthetized to death by Nembutal™ and, immediately thereafter, its stomach was removed. The greater curvature of the stomach was incised so as to remove the stomach contents therefrom. After the mucosal surface was washed with HBSS (Hank's Balanced Salt Solution), the stomach in ice-cooled HBSS was transferred to a laboratory. Then, after the pyloric antrum was removed, the gastric corpus mucosa was separated by a spatula and then minced into 2 to 3 mm pieces in BME (Basal Medium Eagle). Thereafter, these pieces were shaken at 120 to 130 cycles/minute for 15 minutes at 37° C. in BME 60 ml containing 280 U/ml of dispase and 30 to 50 U/mil of collagenase. Here, the concentration of collagenase was appropriately changed for each lot in view of the state of cells. The pieces were washed twice with EBSS (Earle's Balanced Salt Solution) containing 1 mM of EDTA and then shaken in MEM (Minimum Essential Medium) containing 1 mM of EDTA at 37° C. for 5 minutes. Subsequently, they were shaken in the dispase and collagenase having the same concentrations as those mentioned above for 15 minutes so as to remove the supernatant and then further shaken at 37° C. for 50 to 60 minutes at 120 to 130 cycles/minute. Then, after being washed twice with HBSS, Ham F12 containing 2% of Ultrocer G™ was used to attain the concentration of 1×10^6 cells/ml. Thus formed suspension was dispensed in each well of a 96-well plate by 200 μl. The plate was incubated in the atmosphere composed of 5% CO2 and 95% air at 37° C. for three days so as to attain a confluent state and then subjected to MTT assay.
# (§4) The sample compound was dissolved in DMSO so as to attain a concentration of 10^-2 M and then diluted with HBSS containing 2% of Ultrocer G™ so as to attain a final concentration of 10^-4 M. To each group, which 8 wells were used for, 10 μl of MTT reagent was added immediately after 100 μl of the medium in each well was exchanged for same volume of the resulting solution of the sample compound. After being incubated in an atmosphere composed of 5% CO2 and 95% air at 37° C. for 4 hours, thus formed solution was centrifuged and then its supernatant was discarded. Subsequently, 100 μl of 100% ethanol was added to the residue so as to dissolve MTT formazan. Then, the absorbance (OD: 570 to 630) was measured by a microplate reader. This method utilizes a phenomenon in which MTT is changed to MTT formazan only by mitochondria of living cells so as to change color.
# (§5) The cell damaging or cell protecting effect of the sample compound at the final concentration of 10^-4 M was expressed as cell damaging rate (%) as follows:
# (§6) cell damaging rate (%)={1-(absorbance in sample group/absorbance in control group)}×100
# (§7) Accordingly, the smaller value is better in the cell damaging rate.
# [4] = MTT: Cell Damaging and Protecting Effect Test; format: cell-based, male Japanese White rabbit; details: rabbit, gastric mucosa cells, 10^-4 M, smaller value is better, read-out: MTT: cell damaging rate
# From the text: as §1, §2, §3, §4, §5, §6, §7
SMILES,WIS: ulcer formation inhibitory rate [1] [%],CAP: Acid secretion inhibitory rate [2] [%],MTT: cell damaging rate [3] [%],inhibition at 10 µM [2] [%],"cytotoxicity at 4 h, 100 µM [4] [%]",anti-ulcer effect (in words) ([1]; WIS)
"CC(C)c1ccc(C(=O)Nc2nnc(SCCN(C(C)C)C(C)C)s2)cc1.Cl [Example 3, 2-(4-isopropylbenzoyl)amino-5-diisopropylaminoethylthio-1,3,4-thiadiazole hydrochloride]",96,104,-75,,,
"CC(C)N(CCSc1nnc(NC(=O)c2ccc(C(C)(C)C)cc2)s1)C(C)C [Example 5, 2-(4-tert-butylbenzoyl)amino-5-diisopropylaminoethylthio-1,3,4-thiadiazole]",63,,,100,-19,
"CCN(CC)CCSc1nnc(NC(=O)c2cc(C(C)(C)C)cc(C(C)(C)C)c2)s1 [Example 6, 2-(3,5-di-tert-butylbenzoyl)amino-5-diethylaminoethylthio-1,3,4-thiadiazol]",81,,,100,58,sufficient effects
"CCN(CC)CCSc1nnc(NC(=O)c2ccc(OC(C)C)cc2)s1 [Example 7, 2-(4-isopropyloxybenzoyl)amino-5-diethylaminoethylthio-1,3,4-thiadiazole]",76,,,97,46,
"CCN(CC)CCSc1nnc(NC(=O)c2ccc(OC(C)(C)C)cc2)s1 [Example 8, 2-(4-tert-butoxybenzoyl)amino-5-diethylaminoethylthio-1,3,4-thiadiazole]",66,,,99,-11,
"CCN(CC)CCSc1nnc(NC(=O)c2ccc(NC(C)(C)C)cc2)s1 [Example 9, 2-(4-tert-butyaminobenzoyl)amino-5-diethylaminoethylthio-1,3,4-thiadiazole]",51,,,2,-107,
"CCN(CC)CCCSc1nnc(NC(=O)c2ccc(OC/C=C(\C)CCC=C(C)C)cc2)s1 [Example 11, 2-(4-geranyloxybenzoyl)amino-5-diethylaminopropylthio-1,3,4-thiadiazole]",65,,,100,48,
"CC(C)=CCC/C(C)=C/COc1ccc(C(=O)Nc2nnc(SCCCN3CCCCC3)s2)cc1 [Example 13, 2-(4-geranyloxybenzoyl)amino-5-piperidinopropylthio-1,3,4-thiadiazole]",51,,,100,41,
"CCCSc1nnc(NC(=O)c2ccc(OC/C=C(\C)CCC=C(C)C)cc2)s1 [Example 16, 2-(4-geranyloxybenzoyl)amino-5-propylthio-1,3,4-thiadiazole]",53,,,,14,
"CC(C)=CCC/C(C)=C/COc1ccc(C(=O)Nc2nnc(SCC(C)C)s2)cc1 [Example 17, 2-(4-geranyloxybenzoyl)amino-5-isobutylthio-1,3,4-thiadiazole]",46,,,,-4,
"CC(C)=CCC/C(C)=C/COc1ccc(C(=O)Nc2nnc(SCc3ccccc3)s2)cc1 [Example 18, 2-(4-geranyloxybenzoyl)amino-5-benzylthio-1,3,4-thiadiazole]",32,,,,18,
